# Patent US20120070511A1, “MITOCHONDRIAL INHIBITORS AND USES THEREOF” (priority 2009, published 2012)
# Experiments:
# Assay type in all cases: cell-based
# [1] = test system: CHOP/GADD153 and cleaved caspase 3 in 4 MM cell lines; test: Western blot of CHOP/GADD153 and cleaved caspase 3 (UPR-mediated apoptosis); settings: all 4 MM cell lines
# Procedure: Western Blot analysis: Cells are plated at 10^4 cell/cm^−2 for attached cells and 3×10^5/ml for suspension cells and grown under drug treatment for the indicated times. At the end of the treatment period, cells are collected and lysed with 1% SDS in 80 mM Tris-HCL (ph 7.4) buffer supplemented with a proteinase inhibitor cocktail. DNA is fragmented by sonication and protein concentrations are measured by microBCA protein assay kit (Pierce, Rockford, Ill.). Samples are mixed with 3× Laemmli sample buffer (Cell Signaling, Danvers, Mass.) and 40 μg of protein was run on a 12% SDS-polyacrylamide gel. Gels are transferred to nitrocellulose membranes (Amersham, Piscataway, N.J.) and probed with monoclonal rabbit anti-GRP94, anti GRP-78, anti-PDI, anti-CHOP/GADD153, anti-cleaved caspase 3 (Cell Signaling, Danvers, Mass.) and monoclonal mouse anti-β-actin (Sigma, St. Louis, Mo.). Following probing, membranes are washed and incubated with HRP-conjugated secondary antibody (Invitrogen, Carlsbad, Calif.). Following addition of 1:3 diluted femto-chemiluminescent substrate (Pierce, Rockford, Ill.) membranes were exposed to blue autoradiographic film (ISC bioexpress, Kaysville, Utah). Where indicated, membranes were stripped with Stripping Buffer (Pierce, Rockford, Ill.) and reprobed with anti-β-actin (Sigma-Aldrich, St. Louis, Mo.) primary antibody. When needed, the blots were quantified using Bio-Rad gel reader which employs Quality I software (Bio-Rad, Hercules, Calif.).
# [2] = test system: MM cell lines (MM.1S, 8226, KMS-11)
# Procedure: Cytotoxicity assay: Cells were incubated for 24 h at 37° C. in 5% CO2 at which time drug treatments began and continued for 24 h. At this time cells were transferred to a tube followed by centrifugation at 400 g for 5 min. The pellets were resuspended in 1 ml of Hanks solution and analyzed by Vi-Cell (Beckman Coulter, Fullerton, Calif., USA) cell viability analyzer.
# REH cells = test: Cytoplasmic Ca2+ (indo-1) after CCCP; settings: 10 μM CCCP
# Procedure: (§1) […]. A) ψm potential, B) mitochondrial Ca^2+ and C) cytoplasmic Ca^2+ levels were measured using the fluorochromes JC-1, X-rhod-1 and indo-1, respectively. After 10 min of initial baseline measurement, CCCP was added into each well to achieve a final concentration of 10 μM and changes in fluorescence intensity was assayed for up to 2 h. In the graphs the time point of CCCP addition is marked as ‘0’. The graph is an average of triplicate samples with +SD.
# (§2) Measurement of cytoplasmic and mitochondrial calcium: Cytoplasmic Ca^2+ concentration was estimated by using the cell permeant ratiometric fluorochrome indo-1-AM (Invitrogen, Carlsbad, Calif., USA) while mitochondrial Ca^2+ was measured by X-Rhod-1-AM (Invitrogen, Carlsbad, Calif., USA). In the latter assay, to normalize mitochondrial Ca^2+ signal to mitochondria number, Mitotracker Green (Invitrogen, Carlsbad, Calif., USA) fluorescence was simultaneously analyzed. Experiments were performed in cells loaded with either 2.5 μM of indo-1 or 5 μM X-rhod-1 and 250 nM of Mitotracker at 37° C. for 45 min. Cells were, then, centrifuged at 400 g for 5 min and resuspended in their growth medium followed by distribution of 100 μl of aliquots into 96 well optical bottom plates (Nalge Nunc, Int., Rochester, N.Y., USA) and fluorescence was measured by Spectra Max Gemini Plus (Molecular Devices, Sunnyvale, Calif., USA). The average of triplicates from untreated samples was used as control reading and increase in cytoplasmic or mitochondrial Ca^2+ was calculated as percent increase from control samples.
# MM.1S cells [3] = test: Cytoplasmic Ca2+ (indo-1) after CCCP; settings: 10 μM CCCP
# Procedure: as §1, §2
# [4] = test system: non-myeloma cell lines (NALM6, 143B, MDA-MB-435, 1420); settings: higher concentrations; all cell types
# Procedure: (§3) Cytotoxicity assay: Cells were incubated for 24 hr at 37° C. in 5% CO2 at which time drug treatments began and continued for 24 hr. At this time attached cells were trypsinized and combined with their respective culture media while suspension cells were directly transferred to a tube followed by centrifugation at 400 g for 5 min. The pellets were resuspended in 1 ml of Hanks solution and analyzed by Vi-Cell (Beckman Coulter, Fullerton, Calif.) cell viability analyzer.
# [5] = test system: multiple myeloma cell lines (MM.1S, 8226, KMS-11, U266)
# Procedure: as §3
# MM.1S and REH cell lines = test: Mitochondrial Ca2+ (X-rhod-1) after CCCP; settings: 10 μM CCCP; both cell types
# Procedure: as §1
# as §2, with “The average of triplicates from untreated samples was used as control reading and increase in cytoplasmic or mitochondrial Ca^2+ was calculated as percent increase from control samples.” left out
# MM.1S cells [6] = test system: MM.1S cells
# Procedure: A) Reversal of CCCP induced toxicity by either 10 μM BAPTA-AM or 50 μM of Z-VAD was investigated using trypan blue exclusion assays. The bars represent the average of triplicate samples +SD. B) ATP levels were assayed following 6 h of treatment with indicated concentrations of CCCP. The bars represent the average of triplicate samples +SD. C) Induction of UPR, activation of AMPK pathway and cleavage of caspase 3 was analyzed by western blots following 24 h treatment with indicated concentrations of CCCP in MM.1S and REH cell lines. β-Actin was used as a loading control. D) The quantification of phosphorylated AMPK and total AMPK bands in the previous panel was done using a Bio-Rad gel reader which employs Quality I software. The bars represent the fold increase in the ratio of p-AMPK/AMPK in treated versus untreated samples from three independent experiments +SD.
# Western blot analysis: Western blots were performed. Membranes were probed with monoclonal rabbit anti-GRP94, anti GRP-78, anti-PDI, anti-CHOP/GADD153, anti-cleaved caspase 3 (Cell Signaling, Danvers, Mass., USA) and monoclonal mouse anti-β-actin (Sigma, St. Louis, Mo., USA).
structure (smiles),measurement,setting,value
N#CC(C#N)=NNc1cccc(Cl)c1 [CCCP],treatment time at which CHOP/GADD153 expression is noted,[1],3 h
same,cytotoxicity (cell death),"[2]; 24 h, all 3 MM cell lines",more toxic to MM cells as compared to non-myeloma cells
same,cell death compared among mitochondrial inhibitors,"[2]; concentrations of FIG. 13, caspase 3 cleavage and percent of cell death",more toxic than either antimycin A or oligomycin
same,cytoplasmic Ca2+ levels directly after addition,REH cells,go up in both cell types
same,cytoplasmic Ca2+ levels later (after clearance phase),REH cells,go back to control levels
same,cytoplasmic Ca2+ levels directly after addition,MM.1S cells [3],go up in both cell types
same,cytoplasmic Ca2+ levels later (after clearance phase),MM.1S cells [3],remain elevated
same,cytotoxicity at higher concentrations,[4],significant toxicity is induced in all cell types
same,cytotoxic potency compared to the other mitochondrial inhibitors,"[5]; 24 h, MM cells",equipotency in inducing cytotoxicity in MM cells
same,order of sensitivity among MM cell lines,[5]; 24 h treatment,greater in 8226 as compared to MM.1S cells
same,cytotoxicity (cell death),"[5]; 24 h treatment, all 4 MM cell lines",more toxic to multiple myeloma cell lines as compared to other cell types
same,mitochondrial Ca2+,MM.1S and REH cell lines,lowering of Ca^2+ concentration in the mitochondrial matrix
same,CCCP concentration at which caspase 3 starts to get cleaved,"MM.1S cells [6]; 24 h, MM cells",5 µM
same,CCCP concentration giving significant induction of CHOP/GADD153 expression,"MM.1S cells [6]; 24 h, MM.1S",2.5 µM
same,"potency in upregulating CHOP/GADD153, MM versus B-cell leukemia",MM.1S cells [6]; FIG. 12c,four times more potent
same,AMPK phosphorylation at higher doses,MM.1S cells [6]; MM.1S,suppressed
same,eif2α phosphorylation and ATF4 upregulation,MM.1S cells [6]; MM.1S treated with CCCP,not detected
